Experiment [1] addresses T1, PvNMT (Plasmodium vivax, UniProt A5K1A2).
T1 construct: Gly-Pro stays on the protein after cleavage) (N, cleaved yes); host or cells: E. coli Rosetta 2 (DE3) pRARE
Description: biochemical. The format is biochemical. An excerpt: NMT activity was indirectly measured through the detection of free CoA by the thiol-reactive probe 7-diethylamino-3-(4′-maleimidylphenyl)-4-methylcoumarin (CPM).
This study aimed to identify NMT is with high selectivity for the P. vivax enzyme compared with human NMTs and high potency against the different stages of the P. vivax parasite. For this purpose, a structure-guided approach was applied using previously reported NMT inhibitors as scaffolds to develop a new generation of PvNMT-targeting compounds. The NMT activity of these inhibitors was first measured using biochemical assays through the detection of free CoA by the thiol-reactive probe 7-diethylamino-3-(4′-maleimidylphenyl)-4-methylcoumarin (CPM). Their antiparasitic activity were further evaluated by measuring blood-stage parasite load and inhibition of P. vivax liver-stage schizont and hypnozoite infection. […] Cytotoxicity was assessed in the human hepatoma HepG2 cell line. Synchronized P. falciparum NF54 ring-stage parasites were used for measuring blood-stage parasite load. […] In vitro experiments were repeated at least twice. A single concentration of each inhibitor was initially used to evaluate the inhibition of P. vivax liver stage schizont and hypnozoite infection, followed by the determination of the dose-response relationship.
To measure the activity of the purified PvNMT an assay was adapted from the literature. […] Working stock solutions were made fresh adding DMSO for final concentrations of either 1% or 5% DMSO. […] The plate was incubated for 30 min at room temperature. The enzymatic reaction was initiated by adding 50 μL of reaction substrate containing 10 µM myrCoA and PfARF, as well as 8 μM CPM. Fluorescent readings were taken on a Spectra M2 plate reader (Molecular Devices) with excitation at 385 nm and emission at 485 nm. Fluorescent intensity was measured continuously in one-minute intervals for 45 minutes. Background fluorescence and noise were determined by replacing each constituent of the reaction individually with assay buffer containing 1% DMSO and values were deducted from experimental samples. The enzymatic reactions were set up with varying pHs (6.0-8.5) of the assay buffer to determine optimal reaction conditions with minimal background and off target reactions. In lieu of compound, 10 μL of 10% DMSO/H2O was added to each well. Fluorescence signal was obtained continuously for 45 min. […] IC50 calculations were calculated using Prism (GraphPad Software, Inc).

The target of experiment [2] is T2, HsNMT1 (Homo sapiens, UniProt P30419).
T2 construct: made in house
T2 sequence (P30419 1-496): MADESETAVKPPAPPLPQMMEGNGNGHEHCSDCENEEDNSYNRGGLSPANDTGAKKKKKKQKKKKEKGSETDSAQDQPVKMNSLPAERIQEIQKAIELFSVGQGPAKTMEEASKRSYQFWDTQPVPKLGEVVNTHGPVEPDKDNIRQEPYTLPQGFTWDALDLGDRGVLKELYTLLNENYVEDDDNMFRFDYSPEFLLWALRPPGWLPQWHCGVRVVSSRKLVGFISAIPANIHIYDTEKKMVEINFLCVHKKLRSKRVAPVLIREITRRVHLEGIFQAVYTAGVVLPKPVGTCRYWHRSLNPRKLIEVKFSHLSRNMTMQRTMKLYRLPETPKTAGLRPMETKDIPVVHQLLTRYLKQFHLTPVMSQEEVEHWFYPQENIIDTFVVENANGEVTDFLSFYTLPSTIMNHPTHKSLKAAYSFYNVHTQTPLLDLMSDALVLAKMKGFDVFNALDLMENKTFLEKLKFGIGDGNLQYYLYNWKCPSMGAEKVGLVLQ
Description: NMT activity assay (CPM detection of free CoA), human NMT. The class given is biochemical. Particulars: read-out: HsNMT IC50 (nM)*.

The mark [3] stands for this setting: Table 1, mean values of two or more determinations.
Where [4] appears, read: Table 1, enzyme selectivity calculated as HsNMT IC50/PvNMT IC50.

Molecules are shown by their SMILES. Read-outs that look alike come from different tables or passages of the source.

T1 sequence (A5K1A2 entry or part of it): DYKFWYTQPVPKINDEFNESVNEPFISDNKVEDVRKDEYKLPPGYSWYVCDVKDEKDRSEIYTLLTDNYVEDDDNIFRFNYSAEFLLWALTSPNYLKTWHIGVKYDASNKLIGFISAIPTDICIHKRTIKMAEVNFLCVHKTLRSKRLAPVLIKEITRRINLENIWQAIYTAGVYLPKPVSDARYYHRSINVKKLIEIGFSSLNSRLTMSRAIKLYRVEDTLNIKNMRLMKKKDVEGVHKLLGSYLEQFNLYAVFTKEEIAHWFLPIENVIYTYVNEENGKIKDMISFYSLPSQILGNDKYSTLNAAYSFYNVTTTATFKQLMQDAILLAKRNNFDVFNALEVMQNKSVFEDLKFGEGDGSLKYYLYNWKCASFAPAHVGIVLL

Consider `Fc1ccc(-c2cc(N3CCNCC3)ncn2)c(OCCc2cccnc2)c1` [Compound 16d, 4-(4-fluoro-2-(2-(pyridine-3-yl)ethoxy)phenyl)-6-(piperazin-1-yl)pyrimidine], for which, in experiment [1] (setting [3]), half-maximal inhibition (IC50) was put at 3390 nM.
For `Cc1nn(C)c(C)c1CCOc1cc(F)ccc1-c1ccnc(N2CCNCC2)c1` [Compound 12e, 1-(4-(4-fluoro-2-(2-(1,3,5-trimethyl-1H-pyrazol-4-yl)ethoxy)phenyl)pyridin-2-yl)piperazine], the IC50 (in general, the midpoint of a concentration-inhibition curve) in experiment [2] (setting [3]) stood at 124 nM; in experiment [1] (setting [3]) it was 15.8 nM. Moreover, the “SI**” value in experiment [1] (setting [4]) is recorded as 7.8.
As for `c1cncc(CCOc2cccnc2-c2cccc(N3CCNCC3)c2)c1` [Compound 12g, 1-(3-(3-(2-(pyridin-3-yl)ethoxy)pyridin-2-yl)phenyl)piperazine], the IC50 was 15900 nM in experiment [2] (setting [3]) and 104 nM in experiment [1] (setting [3]). In addition, the “SI**” value in experiment [1] (setting [4]) was 152.8.
For `Cc1nn(C)c(C)c1CCOc1cc(F)ccc1-c1cccc(N2CCNCC2)c1` [Compound 12f, 1-(4′-fluoro-2′-(2-(1,3,5-trimethyl-1H-pyrazol-4-yl)ethoxy)-[1,1′-biphenyl]-3-yl)piperazine], in that order: 699 nM, 15.9 nM and 43.9.
As to `Cc1nn(C)c(C)c1CCOc1cc(F)ccc1-c1cccc(OCCN(C)C)c1` [Compound 26c, 2-((4′-fluoro-2′-(2-(1,3,5-trimethyl-1H-pyrazol-4-yl)ethoxy)-[1,1′-biphenyl]-3-yl)oxy)-N,N-dimethylethan-1-amine], the IC50 came to 4790 nM in experiment [2] (Table 2) and 29.4 nM in experiment [1] (Table 2). In experiment [1] (Table 2, HsNMT IC50/PvNMT IC50), the “SI**” value stood at 162.3.
With `Fc1ccc(-c2cccc(N3CCNCC3)c2)c(OCCc2cccnc2)c1` [Compound 12k, 1-(4′-fluoro-2′-(2-(pyridin-3-yl)ethoxy)-[1,1′-biphenyl]-3-yl)piperazine], in experiment [1] (setting [3]), it took 3120 nM to reach half-maximal inhibition (IC50).
In experiment [1] (setting [3]), `Cc1nn(C)c(C)c1CCOc1ccccc1-c1cc(N2CCNCC2)ncn1` [Compound 16a, 4-(piperazin-1-yl)-6-(2-(2-(1,3,5-trimethyl-1H-pyrazol-4-yl)ethoxy)phenyl)pyrimidine] returned a half-inhibitory concentration (IC50) of 9390 nM.
Consider `c1cncc(CCOc2ccccc2-c2ccnc(N3CCNCC3)c2)c1` [Compound 12j, 1-(4-(2-(2-(pyridin-3-yl)ethoxy)phenyl)pyridin-2-yl)piperazine], for which the results for the IC50 in experiment [2] (setting [3]) and in experiment [1] (setting [3]) were 27400 nM and 124 nM, respectively. In experiment [1] (setting [4]), the “SI**” value is 220.6.
Turning to `c1cncc(CCOc2ccccc2-c2cc(N3CCNCC3)ncn2)c1` [Compound 16c, 4-(piperazin-1-yl)-6-(2-(2-(pyridine-3-yl)ethoxy)phenyl)pyrimidine], the half-inhibitory concentration (IC50) in experiment [1] (setting [3]) is > 40000 nM.
The compound `Cc1n[nH]c(C)c1CCOc1cc(F)ccc1-c1cc(N2CCNCC2)ncn1` [Compound 16e, 4-(2-(2-(3,5-dimethyl-1H-pyrazol-4-yl)ethoxy)-4-fluorophenyl)-6-(piperazin-1-yl)pyrimidine] yielded an IC50 in experiment [1] (setting [3]) of 5070 nM.
Regarding `Cc1nn(C)c(C)c1CCOc1cc(F)ccc1-c1cc(N2CCNCC2)ncn1` [Compound 16b, 4-(4-fluoro-2-(2-(1,3,5-trimethyl-1H-pyrazol-4-yl)ethoxy)phenyl)-6-(piperazin-1-yl)pyrimidine], the IC50 came to 27600 nM in experiment [2] (setting [3]) and 168 nM in experiment [1] (setting [3]). In addition, the “SI**” value in experiment [1] (setting [4]) is on record as 164.4. In addition, the “selectivity index (SI)” value in experiment [1] (ratio of IC50 values for HsNMT1 and PvNMT) was found to be 164.
The compound `c1cncc(CCOc2ccccc2-c2cccc(N3CCNCC3)c2)c1` [Compound 12i, 1-(2′-(2-(pyridin-3-yl)ethoxy)-[1,1′-biphenyl]-3-yl)piperazine] returned an IC50 in experiment [1] (setting [3]) of 1540 nM.
As to `Cc1n[nH]c(C)c1CCOc1cc(F)ccc1-c1cccc(OCCN(C)C)c1` [Compound 26i, 2-((2′-(2-(3,5-dimethyl-1H-pyrazol-4-yl)ethoxy)-4′-fluoro-[1,1′-biphenyl]-3-yl)oxy)-N,N-dimethylethan-1-amine], the IC50 in experiment [2] (Table 2) turned out to be 13900 nM; in experiment [1] (Table 2), 242 nM. Moreover, the “SI**” value in experiment [1] (Table 2, HsNMT IC50/PvNMT IC50) is on record as 57.
`Cc1n[nH]c(C)c1CCOc1cccnc1-c1cccc(OCCN(C)C)c1` [Compound 26g, 2-(3-(3-(2-(3,5-dimethyl-1H-pyrazol-4-yl)ethoxy)pyridin-2-yl)phenoxy)-N,N-dimethylethan-1-amine] displayed a concentration for half-maximal inhibition (IC50) in experiment [1] (Table 2) of 19400 nM.
In the case of `CN(C)CCOc1cccc(-c2c(OCCc3cccnc3)ccc3ccccc23)c1` [Compound 30d, N,N-dimethyl-2-(3-(2-(2-(pyridin-3-yl)ethoxy)naphthalen-1-yl)phenoxy)ethan-1-amine], in experiment [1] (Table 2), inhibition was half-maximal at 7210 nM (IC50).
In turn, `CN(C)CCOc1cccc(-c2ccccc2OCCc2cccnc2)c1` [Compound 26e, N,N-dimethyl-2-((2′-(2-(pyridin-3-yl)ethoxy)-[1,1′-biphenyl]-3-yl)oxy)ethan-1-amine] registered an IC50 in experiment [1] (Table 2) of 12800 nM.
Consider `Cc1nn(C)c(C)c1CCOc1ccccc1-c1cccc(OCCN(C)C)c1` [Compound 26b, N,N-dimethyl-2-((2′-(2-(1,3,5-trimethyl-1H-pyrazol-4-yl)ethoxy)-[1,1′-biphenyl]-3-yl)oxy)-ethan-1-amine], for which the half-maximal inhibitory concentration (IC50) in experiment [2] (Table 2) stood at 9850 nM; in experiment [1] (Table 2) it was 83.2 nM. Moreover, in experiment [1] (Table 2, HsNMT IC50/PvNMT IC50), the “SI**” value is listed as 118.4.
Take `Cc1n[nH]c(C)c1CCOc1ccc2ccccc2c1-c1cccc(OCCN(C)C)c1` [Compound 30f, 2-(3-(2-(2-(3,5-dimethyl-1H-pyrazol-4-yl)ethoxy)naphthalen-1-yl)phenoxy)-N,N-dimethylethan-1-amine]: it took 25400 nM to reach half-maximal inhibition in experiment [1] (Table 2) (IC50).
Still for that read-out and setting: to `Cc1n[nH]c(C)c1CCOc1ccccc1-c1cccc(OCCN(C)C)c1` [Compound 26h, 2-((2′-(2-(3,5-dimethyl-1H-pyrazol-4-yl)ethoxy)-[1,1′-biphenyl]-3-yl)oxy)-N,N-dimethylethan-1-amine] belongs 1560 nM.
Regarding `CN(C)CCOc1cccc(-c2ccc(F)cc2OCCc2cccnc2)c1` [Compound 26f, 2-((4′-fluoro-2′-(2-(pyridin-3-yl)ethoxy)-[1,1′-biphenyl]-3-yl)oxy)-N,N-dimethylethan-1-amine], the IC50 in experiment [2] (Table 2) was > 40000 nM; in experiment [1] (Table 2), 622 nM. Further, in experiment [1] (Table 2, HsNMT IC50/PvNMT IC50), the “SI**” value worked out at 62.3.
Take `Cc1nn(C)c(C)c1CCOc1cccnc1-c1cccc(N2CCNCC2)c1` [Compound 12b, 1-(3-(3-(2-(1,3,5-trimethyl-1H-pyrazol-4-yl)ethoxy)pyridin-2-yl)phenyl)piperazine]: the results for the half-maximal inhibitory concentration (IC50) in experiment [2] (setting [3]) and in experiment [1] (setting [3]) were 20800 nM and 80.2 nM, respectively.
On to `Cc1nn(C)c(C)c1CCOc1ccc2ccccc2c1-c1cccc(OCCN(C)C)c1` [Compound 30b, N,N-dimethyl-2-(3-(2-(2-(1,3,5-trimethyl-1H-pyrazol-4-yl)ethoxy)naphthalen-1-yl)phenoxy)ethan-1-amine], for which, in experiment [1] (Table 2), half-maximal inhibition (IC50) was put at 19800 nM.
Turning to `Cc1n[nH]c(C)c1CCOc1ccccc1-c1cc(N2CCNCC2)ncn1` [Compound 16f, 4-(2-(2-(3,5-dimethyl-1H-pyrazol-4-yl)ethoxy)phenyl)-6-(piperazin-1-yl)pyrimidine], the 50% inhibitory concentration (IC50) in experiment [1] (setting [3]) is 14000 nM.
`Cc1n[nH]c(C)c1CCOc1ccc2ccccc2c1-c1ccnc(N2CCNCC2)c1` [Compound 30e, 1-(4-(2-(2-(3,5-dimethyl-1H-pyrazol-4-yl)ethoxy)naphthalen-1-yl)pyridin-2-yl)piperazine] returned a concentration for half-maximal inhibition (IC50) in experiment [1] (Table 2) of 2880 nM.
In turn, `Cc1n[nH]c(C)c1CCOc1cccnc1-c1ccnc(N2CCNCC2)c1` [Compound 12o] came in with an IC50 in experiment [1] (setting [3]) of 3120 nM.
`CN(C)CCOc1cccc(-c2ncccc2OCCc2cccnc2)c1` [Compound 26d, N,N-dimethyl-2-(3-(3-(2-(pyridin-3-yl)ethoxy)pyridin-2-yl)phenoxy)ethan-1-amine]: in experiment [1] (Table 2), 14800 nM corresponded to half-maximal inhibition (IC50).
Consider `Cc1n[nH]c(C)c1CCOc1cccnc1-c1cccc(N2CCNCC2)c1` [Compound 12m, 1-(3-(3-(2-(3,5-dimethyl-1H-pyrazol-4-yl)ethoxy)pyridin-2-yl)phenyl)piperazine], for which half-maximal inhibition in experiment [1] (setting [3]) (IC50) was put at 12500 nM.

These data come from patent US20260217686A1, “N-Myristoyltransferase Inhibitors And Methods Of Use” (Seattle Children's Hospital (d/b/a Seattle Children's …, priority 2022, published 2026).
